Among the data in patent US20170312290A1, “FUNCTIONALIZED MORPHOLINYL ANTHRACYCLINE DERIVATIVES” (Nerviano Medical Sciences S.R.L., priority 2014, published 2017) are IC50 values, retold here.

One may read the IC50 as the concentration that gives 50% inhibition.

Assay in all cases: In vitro cell proliferation assay (CellTiter-Glo)
Common to all, as to type: cell-based
(In general: Cellular ATP, detected with luciferase, serves as a proxy for viable cell number.)

The subject of one experiment is MDA-MB-468. The following applies: Homo sapiens, MDA-MB-468 cells, 72 h treatment, read-out: Cell Line IC50 MDA-MB-468. On the procedure:
(§1) Human cancer cell lines were seeded in white 384 well-plates (1250 cells/well) in complete medium (RPM11640 or E-MEM plus 10% Fetal bovine serum) and treated with compounds dissolved in 0.1% DMSO, 24 h after seeding. The cells were incubated at 37° C. and 5% CO2 and after 72 h the plates were processed using CellTiter-Glo assay (Promega) following the manufacturer's instruction.
(§2) CellTiter-Glo is a homogenous method based on the quantification of the ATP present, an indicator of metabolically active cells. ATP is quantified using a system based on luciferase and D-luciferin resulting into light generation.
(§3) Briefly, 25 μL/well of reagent solution are added to each well and, after 5 minutes shaking, microplates are read by a luminometer. The luminescent signal is proportional to the number of live cells present in culture.
(§4) Dose-response curves were generated by sigmoid function interpolation of 8 concentration points and the antiproliferative activity of compounds was reported as the half-maximal inhibitory concentration (IC50).

The next experiment relates to A2780. The following applies: Homo sapiens, A2780 cells, 72 h treatment, read-out: Cell Line IC50 A2780. As to the method: as §1, §2, §3, §4
A further experiment relates to HELA. The following applies: Homo sapiens, HELA cells, 72 h treatment, read-out: Cell Line IC50 HELA. As to the method: as §1, §2, §3, §4
A further experiment has as its system MCF7. The note with it: Homo sapiens, MCF7 cells, 72 h treatment, read-out: Cell Line IC50 MCF7. As to the method: as §1, §2, §3, §4
For another experiment, the system named is HCT-116. The note with it: Homo sapiens, HCT-116 cells, 72 h treatment, read-out: Cell Line IC50 HCT-116. As to the method:
as §1, §2, §3, §4

Another experiment has as its system HCC1954. The note with it: Homo sapiens, HCC1954 cells, 72 h treatment, read-out: Cell Line IC50 HCC1954. On the procedure:
as §1, §2, §3, §4

A further experiment relates to MDA-MB_213. The following applies: Homo sapiens, MDA-MB_213 cells, 72 h treatment, read-out: Cell Line IC50 MDA-MB_213. On the procedure:
as §1, §2, §3, §4

For the compound `CO[C@H]1OCCN2[C@@H]1O[C@@H]1[C@H](C)OC(O[C@H]3C[C@](O)(C(C)=O)Cc4c(O)c5c(c(O)c43)C(=O)c3c(NC(=O)[C@H](C)N)cccc3C5=O)C[C@@H]12` (some centres unmarked) [Comp. 26], the IC50 in the experiment with MDA-MB-468 worked out at 2.3 nM; in the experiment with A2780 it was 1.2 nM; in the experiment on HELA, 3.5 nM; in the experiment with MCF7, 3.8 nM; in the experiment with HCT-116 it was 1.1 nM; with HCC1954, 4.8 nM.
Turning to `CO[C@H]1OCCN2[C@@H]1O[C@@H]1[C@H](C)O[C@@H](O[C@H]3C[C@](O)(C(C)=O)Cc4c(O)c5c(c(O)c43)C(=O)c3c(N)cccc3C5=O)C[C@@H]12` [Comp. 22, (8S,10S)-8-acetyl-1-amino-6,8,11-trihydroxy-10-{[(1S,3R,4aS,9S,9aR,10aS)-9-methoxy-1-methyloctahydro-1H-pyrano[4′,3′:4,5][1,3]oxazolo[2,3-c][1,4]oxazin-3-yl]oxy}-7,8,9,10-tetrahydrotetracene-5,12-dione], the IC50 in the experiment with MDA-MB-468 is 0.313 nM; in the experiment on A2780, 0.044 nM; in the experiment on HELA it was 0.7 nM; with MCF7, 0.668 nM; in the experiment with HCT-116, 0.2 nM; in the experiment on HCC1954, 0.549 nM. Further, the IC50 in the experiment with MDA-MB_213 turned out to be 0.538 nM.
In the case of `CO[C@H]1OCCN2[C@@H]1O[C@@H]1[C@H](C)O[C@@H](O[C@H]3C[C@](O)(C(C)=O)Cc4c(O)c5c(c(O)c43)C(=O)c3c(F)cccc3C5=O)C[C@@H]12` [Comp. 21, (8S,10S)-8-acetyl-1-fluoro-6,8,11-trihydroxy-10-{[(1S,3R,4aS,9aR,10aS)-9-methoxy-1-methyloctahydro-1H-pyrano[4′,3′:4,5][1,3]oxazolo[2,3-c][1,4]oxazin-3-yl]oxy}-7,8,9,10-tetrahydrotetracene-5,12-dione], the IC50 was determined as 0.072 nM in the experiment on MDA-MB-468; 0.032 nM in the experiment with A2780; 0.349 nM with HELA; 3.52 nM in the experiment with MCF7; 0.146 nM with HCT-116; 0.377 nM with HCC1954. Also, in the experiment with MDA-MB_213, the IC50 is 0.306 nM.
